Measured values from PMC7698453, “4-Benzyloxylonchocarpin and Muracatanes A-C from Ranunculus muricatus L. and Their Biological Effects” (Biomolecules, 2020).
Where a name gives a salt, the structure may show the parent alone. Read-outs that look alike come from different tables or passages of the source.

Assays:
[1] = Sulforhodamine B cytotoxicity assay, HT29; format: cell-based; conditions: human, HT29 colorectal adenocarcinoma cells; SRB assay, tested 1-30 µM
Description: (§1) The cytotoxicity of the natural products was screened by using the sulforhodamine-B (Kiton Red S, ABCR, Karlsruhe, Germany) in micro culture colorimetric assay using 96-well plates with the seeding of the cells on day 0 applying appropriate cell densities to prevent confluence of the cells during the period of the experiment. On day 1, the cells were treated with six different concentrations (1, 3, 7, 12, 20 and 30 µM); thereby, the final concentration of DMSO was always ≤ 0.5%, generally regarded as non-toxic to the cells. On day 4, the supernatant medium was discarded; the cells were fixed with 10 % trichloroacetic acid. After another day at 4 °C, the cells were washed in a strip washer and dyed with the SRB solution (100 µL, 0.4% in 1% acetic acid) for about 20 min and this was followed by washing of the plates (four times, 1% acetic acid) and air-drying overnight. Furthermore, tris base solution (200 µL, 10 mM) was added to each well and absorbance was measured at λ = 570 nm employing a reader (96 wells, Tecan Spectra, Crailsheim, Germany).

BChE (from equine serum) = target: T1, BChE (from equine serum) (Equus caballus, UniProt P81908); assay: Cholinesterase assay (Ellman's method), BChE; format: biochemical; conditions: for inhibition at 10 µM: read-out: BChE % Inhibition
T1 construct: BChE (from equine serum); purchased Merck (Darmstadt, Germany); host or cells: equine serum
T1 sequence (P81908 whole entry): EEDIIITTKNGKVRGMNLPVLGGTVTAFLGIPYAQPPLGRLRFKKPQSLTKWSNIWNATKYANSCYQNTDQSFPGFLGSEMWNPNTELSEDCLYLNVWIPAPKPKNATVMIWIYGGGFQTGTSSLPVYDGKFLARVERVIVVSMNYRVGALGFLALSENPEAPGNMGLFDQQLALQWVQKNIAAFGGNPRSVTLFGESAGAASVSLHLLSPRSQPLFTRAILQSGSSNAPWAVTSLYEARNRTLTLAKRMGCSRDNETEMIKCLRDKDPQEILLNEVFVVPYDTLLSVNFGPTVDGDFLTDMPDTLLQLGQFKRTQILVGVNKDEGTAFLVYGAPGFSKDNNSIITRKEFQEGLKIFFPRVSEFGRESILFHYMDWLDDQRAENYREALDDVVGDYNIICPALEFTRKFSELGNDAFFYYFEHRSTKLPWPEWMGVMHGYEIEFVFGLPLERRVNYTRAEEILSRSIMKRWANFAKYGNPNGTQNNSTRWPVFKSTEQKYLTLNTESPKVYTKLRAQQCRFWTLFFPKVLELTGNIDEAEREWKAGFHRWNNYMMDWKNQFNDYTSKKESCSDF
Description: (§2) A solution of tris(hydroxymethyl)-aminomethane (606 mg) in twice-distilled water (100 mL) was adjusted to a pH of 8.0 ± 0.1 with HCl to get a 50 mM Tris-HCl buffer solution. The AChE solution holding 2.005 U/mL was prepared by dissolving the enzyme (271 U/mg, 0.037 mg) in freshly prepared buffer pH 8.0 (5 mL) comprising extra NaN3 (0.98 mg), and for the BChE solution with the concentration of 2.040 U/mL: the enzyme (7.54 U/mg, 1.353 mg) was dissolved in freshly prepared buffer pH 8.0 (5 mL) comprising NaN3 (0.98 mg). The DTNB solution with the concentration of 3 mM was prepared by dissolving DTNB (23.8 mg) in buffer pH 8.0 (20 mL) and this was followed by the addition of MgCl2 (38.0 mg) and NaCl (116.8 mg). The ATChI solution with the concentration of 15 mM was prepared by dissolving ATChI (43.4 mg) in twice-distilled water (10 mL). Furthermore, all solutions were stored in Eppendorf tubes in the refrigerator or freezer. […] The final concentrations for the enzymatic assays were obtained by diluting the stock solution with twice-distilled water.
(§3) A mixture of the tested natural product solutions (25 µL, 3 different concentrations and one blank), DTNB solution (125 μL) and enzyme solution (25 μL, AChE or BChE) was incubated at 30 °C for 20 min in 96-well microplates followed by the addition of the substrate (25 μL, at 4 different concentrations). The final substrate concentrations were as follows: [ATChI] = 0.9375 mM, 0.625 mM, […], and 0.1875 mM. Moreover, the absorbance (λ = 415 nm) was measured at 30 °C for 30 min at 1 min intervals. […] Ki and Ki’ were deduced from Lineweaver–Burk, Dixon, and Cornish–Bowden plots as well as the mode of inhibtion. The relative inhibition was deduced as the quotient of the slopes (compound divided by blank) of the linear ranges. The concentration of each compound was 10 µM while the concentration was ATChI = 0.625 mM.

[2] = Sulforhodamine B cytotoxicity assay, SW1736; format: cell-based; conditions: human, SW1736 thyroid carcinoma cells; SRB assay, tested 1-30 µM
Description: as §1

[3] = Sulforhodamine B cytotoxicity assay, MCF7; format: cell-based; conditions: human, MCF7 breast cancer cells; SRB assay, tested 1-30 µM
Description: as §1

[4] = Sulforhodamine B cytotoxicity assay, FaDu; format: cell-based; conditions: human, FaDu pharynx carcinoma cells; SRB assay, tested 1-30 µM
Description: as §1

[5] = Sulforhodamine B cytotoxicity assay, A2780; format: cell-based; conditions: human, A2780 ovarian carcinoma cells; SRB assay, tested 1-30 µM
Description: as §1

[6] = target: T2, AChE (from Electrophorus electricus) (Electrophorus electricus, UniProt O42275); assay: biochemical; format: biochemical; conditions: for inhibition at 10 µM: at concentration of 10 µM, ATChI 0.625 mM
T2 construct: purchased Merck (Darmstadt, Germany)
T2 sequence (O42275 24-633): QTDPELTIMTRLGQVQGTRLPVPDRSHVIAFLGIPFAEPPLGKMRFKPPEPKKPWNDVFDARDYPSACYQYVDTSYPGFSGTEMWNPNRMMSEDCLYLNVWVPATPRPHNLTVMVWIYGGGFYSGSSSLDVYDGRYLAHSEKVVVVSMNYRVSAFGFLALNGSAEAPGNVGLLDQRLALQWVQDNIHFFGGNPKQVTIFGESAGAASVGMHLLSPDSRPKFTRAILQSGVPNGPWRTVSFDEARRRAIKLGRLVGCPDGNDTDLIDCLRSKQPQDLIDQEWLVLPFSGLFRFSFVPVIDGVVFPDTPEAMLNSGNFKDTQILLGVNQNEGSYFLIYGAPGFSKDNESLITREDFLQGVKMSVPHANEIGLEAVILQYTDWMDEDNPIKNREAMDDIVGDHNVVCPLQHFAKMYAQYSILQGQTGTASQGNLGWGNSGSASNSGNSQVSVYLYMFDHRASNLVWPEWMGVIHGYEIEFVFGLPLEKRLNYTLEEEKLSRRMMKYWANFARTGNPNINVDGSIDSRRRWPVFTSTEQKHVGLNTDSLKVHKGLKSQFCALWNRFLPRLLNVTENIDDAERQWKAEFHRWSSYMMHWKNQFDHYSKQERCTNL
Description: as §2, §3

[7] = target: T3, α-Glucosidase type I (EC 3.2.1.20 from Saccharomyces cerevisiae) (Saccharomyces cerevisiae, UniProt P53341); assay: α-Glucosidase assay (p-NPG substrate); format: biochemical; conditions: for inhibition at 10 µM: at concentration of 10 µM
T3 construct: purchased Sigma-Aldrich (St. Louis, MO, USA)
T3 sequence (P53341 whole entry): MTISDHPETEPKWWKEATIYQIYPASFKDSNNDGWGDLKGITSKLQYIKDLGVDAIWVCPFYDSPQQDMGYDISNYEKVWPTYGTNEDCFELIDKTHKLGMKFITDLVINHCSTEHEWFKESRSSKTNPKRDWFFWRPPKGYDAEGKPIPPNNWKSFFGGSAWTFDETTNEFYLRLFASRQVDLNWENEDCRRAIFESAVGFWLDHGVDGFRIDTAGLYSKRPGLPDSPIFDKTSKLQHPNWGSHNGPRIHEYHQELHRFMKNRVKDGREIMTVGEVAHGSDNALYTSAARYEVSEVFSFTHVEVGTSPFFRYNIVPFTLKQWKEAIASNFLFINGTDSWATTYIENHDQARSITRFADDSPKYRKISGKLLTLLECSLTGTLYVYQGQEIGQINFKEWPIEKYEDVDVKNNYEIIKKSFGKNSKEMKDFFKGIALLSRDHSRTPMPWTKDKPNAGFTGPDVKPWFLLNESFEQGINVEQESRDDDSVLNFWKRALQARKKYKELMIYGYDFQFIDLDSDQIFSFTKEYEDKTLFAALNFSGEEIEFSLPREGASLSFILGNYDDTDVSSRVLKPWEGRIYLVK
Description: The α-glucosidase assay was applied to pure natural product 3 according to the protocol described by Schmidt and co-workers. In short, the assays were performed in 96-well microplates using a Multiskan FC microplate photometer (Thermo Fisher Scientific, Waltham, MA, USA) controlled by SkanIt 2.5.1 software (Thermo Fisher Scientific, Waltham, MA, USA) with final volumes of 200 µL in each well. A phosphate buffer (100 mM) was prepared by dissolving 2.65 g sodium dihydrogen phosphate dihydrate, 4.70 g disodium hydrogen phosphate, and 0.10 g sodium azide in 500 mL Milli-Q water and adjusting the pH to 7.5. […] The microplate was shaken for 2 min, and incubated for 10 min at 28 °C. Then, 20 µL of p-NPG substrate (10 mM, 60.2 mg in 20 mL buffer) was added to each well to initiate the reaction. The enzyme activity (expressed as cleavage rate ΔAU/s) was determined by measuring the absorbance at 405 nm every 30 s for 35 min, and percentage inhibition was calculated according to the equation: Percent inhibition=Slope(blank)−Slope(sample)/Slope(blank)× 100% where slopeblank is the enzyme activity of the wells containing buffer, enzyme, and substrate and slopesample is the enzyme activity in the wells containing buffer, enzyme, substrate, and sample.

[8] = Ki' (mixed-mode inhibition), from Lineweaver–Burk, Dixon and Cornish–Bowden plots

Row | Structure (SMILES) | IC50 at 3 days [1] | inhibition at 10 µM (BChE (from equine serum); at concentration of 10 µM) | IC50 at 3 days [2] | IC50 at 3 days [3] | IC50 at 3 days [4] | IC50 at 3 days [5] | mode of inhibition of AChE [6] | AChE Ki' [6, 8] | Ki [6, 8] | inhibition at 10 µM [6] | Ki ([6]; from Lineweaver–Burk, Dixon and Cornish–Bowden plots) | inhibition at 10 µM [7] | IC50 [7] | inhibition at 10 µM (BChE (from equine serum)) | mode of inhibition of BChE (BChE (from equine serum); results not shown)
1 | CC1(C)C=Cc2c(ccc(C(=O)/C=C/c3ccc(OCc4ccccc4)cc3)c2O)O1 [Compound 1, (E)-3-(4-(benzyloxy)phenyl)-1-(5-hydroxy-2,2-dimethyl-2H-chromen-6-yl)prop-2-en-1-one] | > 30 µM | 27.3% | > 30 µM | > 30 µM | > 30 µM | > 30 µM | mixed-mode type inhibitor | 3.54 ± 0.24 µM | 3.54 µM | 97.4% | 5.39 ± 0.51 µM | – | – | – | –
2 | COC(=O)C(Cc1ccc2c(c1OC)C(=O)c1cccc(OC)c1C2=O)C(=O)OC [Compound 2, dimethyl 2-((1,5-dimethoxy-9,10-dioxo-9,10-dihydroanthracen-2-yl)methyl)malonate] | > 30 µM | – | > 30 µM | > 30 µM | > 30 µM | > 30 µM | – | – | – | – | – | 13.4% | – | – | –
3 | O=C1c2ccc(O)cc2C(=O)c2c(O)ccc(O)c21 [Compound 3, 1,4,6-trihydroxyanthracene-9,10-dione] | > 30 µM | – | > 30 µM | > 30 µM | > 30 µM | > 30 µM | – | – | – | – | – | 80.4% | 164 ± 83 µM | – | –
4 | COc1ccc(/C=C/C(=O)c2ccc3c(c2O)C=CC(C)(C)O3)cc1 [Compound 5, 4-methoxylonchocarpin] | 20.2 µM | 8.7% | 26.2 µM | 23.7 µM | > 30 µM | 25.4 µM | – | – | – | 49.9% | – | 36.1% | – | – | –
5 | COc1ccc2c3c1O[C@H]1C[C@@H](O)C=C[C@@]31CCN(C)C2 [GH, Galantamine hydrobromide, reference compound] | – | – | – | – | – | – | – | – | – | – | – | – | – | 54.8% | competitive inhibitor
